Results published in patent EP4772502A1, “ARYL OR HETEROARYL SUBSTITUTED CARBAMATE COMPOUND AND DERIVATIVE AND USE THEREOF” (Shenzhen Zhongge Biological Technology Co., Ltd., priority 2023, dated 2025).

System: AMPK
Assay: not given
Conditions: Tamura et al., Bioorganic & Medicinal Chemistry Letters, Vol. 68, 2022, 128769; cited from earlier work

In the case of O=C(Nc1ncc(-c2ccc(-c3ccccc3)cc2)s1)O[C@@H]1CO[C@H]2[C@@H]1OC[C@H]2O [compound 11], the AMPK agonist activity is given as “no AMPK agonist activity”.

Biological target: T1, AMPKα1β1γ1 (Homo sapiens, UniProt Q13131+Q9Y478)
T1 construct: purchased CARNA 02-113
Assay: In vitro assay for AMPK (α1β1γ1) enzyme agonist activity (TR-FRET)
Assay type: biochemical
Conditions: 1 h; activity of 1 µM A769662 set as 100%; read-out: Top value (%)
Protocol: Test example 1: In vitro assay for AMPK (α1β1γ1) enzyme agonist activity
Test compounds were dissolved in DMSO to prepare 10 mM stock solution, which was then diluted to the predetermined test concentrations using kinase buffer (50 mM HEPES, 1 mM EDTA, 10 mM MgCl2, 0.01% Brij-35, pH = 7.5). Into a 384-well plate were added 5 µL of AMPKα1β1γ1 (CARNA, 02-113), 2.5 µL of the diluted test compound solution, and 2.5 µL of a mixture of […] and ATP, resulting in the following final concentrations: AMPKα1β1γ1 at 1.6 mg/L, […] at 5 nM, and ATP at 0.1 mM. The components were mixed evenly, and reacted at room temperature for 1 h. Subsequently, 5 µL of LANCE Detection Buffer (CR97-100, PerkinElmer) containing 40 mM EDTA was added. After standing for 5 min, 5 µL of 4× Eu-anti-phospho-CREB Antibody (TRF0200-M, PerkinElmer) was added, and the mixture was allowed to stand at room temperature for 1 h. The values of samples in each well were read using a microplate reader in TR-FRET mode (excitation wavelength: 320 nm; emission wavelengths: 665 nm and 615 nm). By comparing the values with those of the blank control group (1% DMSO) and the positive control group (1 µM A769662), the relative activity of AMPKα1β1γ1 at each test compound concentration (4.57 nM, 13.72 nM, 41.15 nM, 123.46 nM, 370.37 nM, 1111.11 nM, 3333.33 nM, and 10000 nM) was calculated, with the activity of 1 µM A769662 set as 100%. The data were analysed in GraphPad Prism 9 using a Dose-response-Stimulation four-parameter regression model to obtain the Top and EC50 values for the test compounds.

T1 sequence (Q13131 whole entry): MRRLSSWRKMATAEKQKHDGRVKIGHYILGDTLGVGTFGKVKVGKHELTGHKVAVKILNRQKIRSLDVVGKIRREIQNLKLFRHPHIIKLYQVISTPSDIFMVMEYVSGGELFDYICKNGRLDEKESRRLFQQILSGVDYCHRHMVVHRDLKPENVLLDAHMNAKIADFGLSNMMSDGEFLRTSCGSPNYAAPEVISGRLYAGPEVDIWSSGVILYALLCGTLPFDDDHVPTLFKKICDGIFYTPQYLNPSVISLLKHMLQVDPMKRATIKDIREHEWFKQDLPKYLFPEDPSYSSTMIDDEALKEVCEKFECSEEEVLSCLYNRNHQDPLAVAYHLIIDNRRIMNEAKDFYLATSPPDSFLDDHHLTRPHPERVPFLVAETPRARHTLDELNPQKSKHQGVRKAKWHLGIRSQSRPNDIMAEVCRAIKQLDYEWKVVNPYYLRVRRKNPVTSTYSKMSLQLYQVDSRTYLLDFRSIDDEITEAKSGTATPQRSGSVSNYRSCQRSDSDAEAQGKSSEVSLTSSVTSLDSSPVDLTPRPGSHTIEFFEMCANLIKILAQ
T1 sequence (Q9Y478 whole entry): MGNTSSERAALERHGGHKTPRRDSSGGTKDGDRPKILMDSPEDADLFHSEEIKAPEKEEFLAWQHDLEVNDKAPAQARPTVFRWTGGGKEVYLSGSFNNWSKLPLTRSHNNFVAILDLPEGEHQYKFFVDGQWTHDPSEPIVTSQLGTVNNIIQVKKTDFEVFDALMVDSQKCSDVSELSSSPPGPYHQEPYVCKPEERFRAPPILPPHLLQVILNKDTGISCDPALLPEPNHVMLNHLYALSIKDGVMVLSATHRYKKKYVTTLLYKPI
T1 sequence (P54619 whole entry partner): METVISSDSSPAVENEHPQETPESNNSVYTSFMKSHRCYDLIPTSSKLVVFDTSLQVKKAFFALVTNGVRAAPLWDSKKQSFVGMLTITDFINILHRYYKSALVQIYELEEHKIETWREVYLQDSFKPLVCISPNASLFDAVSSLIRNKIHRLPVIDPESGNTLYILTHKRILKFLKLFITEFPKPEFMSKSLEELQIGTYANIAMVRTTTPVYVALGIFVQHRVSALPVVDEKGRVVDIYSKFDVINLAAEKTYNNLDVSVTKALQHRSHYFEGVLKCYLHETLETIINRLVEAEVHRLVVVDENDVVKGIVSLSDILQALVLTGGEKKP

Compared with O=C(Nc1cc(Cl)c(C#CC2(O)CCC2)s1)O[C@@H]1CO[C@H]2[C@@H]1OC[C@H]2O [Compound 28], O=C(Nc1cc(Cl)c(-c2ccc(C3(O)CCC3)cc2)s1)O[C@@H]1CO[C@H]2[C@@H]1OC[C@H]2O [compound 7] is higher in Emax: 70 to 100% for the first, 200 to 300% for the second.

First: NCCCOc1ccc(-c2sc(NC(=O)O[C@@H]3CO[C@H]4[C@@H]3OC[C@H]4O)cc2Cl)cc1 [Compound 31]
Second: NCCCc1ccc(-c2sc(NC(=O)O[C@@H]3CO[C@H]4[C@@H]3OC[C@H]4O)cc2Cl)cc1 [Compound 32]
The Emax of the first is higher: 150 to 200% for the first, 100 to 150% for the second.

Compared with CCOC(=O)[C@H]1CC[C@H](OC(=O)Nc2cc(Cl)c(-c3ccc(C4(CO)CC4)cc3)s2)CC1 [Compound 37], O=C(Nc1cc(Cl)c(-c2ccc(C3(CO)CC3)cc2)s1)O[C@H]1CC[C@H](C(=O)O)CC1 [Compound 38] is higher in Emax: 70 to 100% for the first, 150 to 200% for the second.

First: O=C(Nc1cc(Cl)c(-c2ccc(C3(CO)CC3)cc2)s1)O[C@H]1CC[C@H](CO)CC1 [Compound 39]
Second: O=C(Nc1cc(Cl)c(-c2ccc(C3(CO)CC3)cc2)s1)O[C@@H]1CO[C@H]2[C@@H]1OC[C@H]2O [compound 3]
The Emax of the first is lower: 100 to 150% for the first, 200 to 300% for the second.

Compared with CCc1cc(NC(=O)O[C@@H]2CO[C@H]3[C@@H]2OC[C@H]3O)sc1-c1ccc(C2(CO)CC2)cc1 [Compound 40], Cc1cc(NC(=O)O[C@@H]2CO[C@H]3[C@@H]2OC[C@H]3O)sc1-c1ccc(C2(CO)CC2)cc1 [compound 8] is higher in Emax: 100 to 150% for the first, 200 to 300% for the second.

First: O=C(Nc1cc(Cl)c(-c2ccc(-c3ccccc3O)cc2)s1)OCCCO [Compound 42]
Second: O=C(Nc1cc(Cl)c(-c2ccc(-c3ccccc3O)cc2)s1)O[C@@H]1CO[C@H]2[C@@H]1OC[C@H]2O [compound 6]
The Emax of the first is lower: 150 to 200% for the first, 200 to 300% for the second.

First: O=C(Nc1cc(-c2ccc(C3(CO)CC3)cc2)c(Cl)s1)O[C@@H]1CO[C@H]2[C@@H]1OC[C@H]2O [compound 1]
Second: O=C(Nc1cc(-c2ccc(C3(CO)CC3)cc2)cs1)O[C@@H]1CO[C@H]2[C@@H]1OC[C@H]2O [compound 2]
The Emax of the first is higher: 200 to 300% for the first, 150 to 200% for the second.

O=C(Nc1cc(Cl)c(-c2ccc(-c3ccccc3)cc2)s1)O[C@@H]1CO[C@H]2[C@@H]1OC[C@H]2O [compound 4] and CS(=O)(=O)c1ccc(-c2ccc(-c3sc(NC(=O)O[C@@H]4CO[C@H]5[C@@H]4OC[C@H]5O)cc3Cl)cc2)cc1 [compound 19] fall in the same range of Emax: 150 to 200% for the first, 150 to 200% for the second.

Cn1ccc2cc(-c3sc(NC(=O)O[C@@H]4CO[C@H]5[C@@H]4OC[C@H]5O)cc3Cl)ccc21 [compound 5] and O=C(Nc1cc(Cl)c(-c2ccc3c(ccn3C3CC3)c2)s1)O[C@@H]1CO[C@H]2[C@@H]1OC[C@H]2O [compound 18] fall in the same range of Emax: 150 to 200% for the first, 150 to 200% for the second.

First: O=C(Nc1cc(Cl)c(-c2ccc(N3CCOCC3)cc2)s1)O[C@@H]1CO[C@H]2[C@@H]1OC[C@H]2O [compound 9]
Second: O=C(Nc1cc(Cl)c(-c2ccc(N3CCCC3)cc2)s1)O[C@@H]1CO[C@H]2[C@@H]1OC[C@H]2O [compound 14]
The Emax of the first is higher: 150 to 200% for the first, 70 to 100% for the second.

First: COc1ccc(-c2sc(NC(=O)O[C@@H]3CO[C@H]4[C@@H]3OC[C@H]4O)cc2Cl)cc1 [compound 10]
Second: CN1CCC(c2ccc(-c3sc(NC(=O)O[C@@H]4CO[C@H]5[C@@H]4OC[C@H]5O)cc3Cl)cc2)CC1 [compound 24]
The Emax of the first is higher: 200 to 300% for the first, 150 to 200% for the second.

First: O=C(Nc1csc(-c2ccc(C3(CO)CC3)cc2)c1)O[C@@H]1CO[C@H]2[C@@H]1OC[C@H]2O [compound 13]
Second: O=C(Nc1cc(C2CC2)c(-c2ccc(C3(CO)CC3)cc2)s1)O[C@@H]1CO[C@H]2[C@@H]1OC[C@H]2O [compound 22]
The Emax of the first is higher: 200 to 300% for the first, 150 to 200% for the second.

First: Cn1ccc2cc(-c3sc(NC(=O)OCCCO)cc3Cl)ccc21 [compound 15]
Second: O=C(Nc1cc(Cl)c(-c2ccc(OCCCN3CCOCC3)cc2)s1)O[C@@H]1CO[C@H]2[C@@H]1OC[C@H]2O [compound 23]
The Emax of the first is lower: 70 to 100% for the first, no less than 300% for the second.

O=C(Nc1cc(Cl)c(C#Cc2ccccc2)s1)O[C@@H]1CO[C@H]2[C@@H]1OC[C@H]2O [compound 17] and O=C(Nc1cc(Cl)c(C#Cc2ccccc2O)s1)O[C@@H]1CO[C@H]2[C@@H]1OC[C@H]2O [compound 20] cannot be ordered by Emax: 200 to 300% for the first, no less than 300% for the second.
